The test system of the test is P. falciparum 3D7 growth, pLDH absorbance. Briefly: P. falciparum 3D7 growth inhibition, dose response, strain 3D7 (AID 2305).

In general, IC50 refers to the concentration that inhibits the measured activity by half. A lower IC50 goes with inhibition by little substance. Compound `CN(C)c1cccc(NC(=O)N[C@H]2N=C(c3ccccc3)c3ccccc3N(CC(=O)N3CCCC3)C2=O)c1` gave an IC50 of 250 nM.
Under `Cc1ccc(Oc2c(-c3ccccc3CN3CCCC3CN(C)C)cnn(C)c2=O)cn1` (stereo unspecified) stands 1160 nM; under `CCc1cc(NC2CCN(C)CC2)nc(Nc2cccc(OC)c2)n1`, 860 nM.
For `CC1CN(c2ccc(NC(=O)c3ccc(F)cc3)cc2)CCN1Cc1cccc(F)c1` (stereo unspecified), the IC50 is 1350 nM.
For the compound `Cc1nc(NCc2ccccc2)cc(NCC(O)c2ccc(O)cc2)n1` (stereo unspecified), the IC50 was found to be 1230 nM.
Under `CCN(CC)C(=O)c1cccc(/C=C/c2ccc(-c3c(C)[nH]c(C)c(Cl)c3=O)cc2)c1` stands 260 nM; under `O=S(=O)(c1cccc(Cl)c1F)N(CCC(O)(C(F)(F)F)C(F)(F)F)Cc1cccc(O)c1`, 920 nM; under `CO/C=C(/C(=O)OC)c1ccccc1Oc1cc(Oc2ccccc2C#N)ncn1`, 40 nM.
`O=C(O[C@@H]1CN[C@H](C#Cc2cc3c(Nc4ccc5c(cnn5Cc5ccccc5)c4)ncnc3s2)C1)N1CCCC1` came in with an IC50 of 420 nM.
`Fc1ccc2nc(-c3cccc(-c4cccc(CNCCc5ccncc5)c4)c3)[nH]c2c1` returned a concentration for half-maximal inhibition (IC50) of 170 nM.
On to `CN1CCC(C(=O)N(Cc2ccc(-c3ccc(CNCCc4ccc(S(C)(=O)=O)cc4)cn3)cc2)C2CCN(Cc3ccccc3)CC2)CC1`, for which the IC50 is 670 nM.
For `CCNC(=O)c1cc(S(=O)(=O)N2CCN(c3ccccn3)CC2)cs1`, the IC50 was found to be 870 nM.
`O=C(Nc1ccc(OC2CCN(Cc3ccccc3)C2)c(Cl)c1)c1ccsc1` (stereo unspecified) had a half-maximal inhibitory concentration (IC50) of 730 nM.
In the case of `COc1ccc2ncc(F)c(CCN3CC[C@@H](CNCc4cc(C)c5c(c4)OCCO5)C3)c2n1`, the 50% inhibitory concentration (IC50) is 890 nM.
Consider `Cc1cccc2[nH]c(-c3cccc(-c4cccc(CNCCc5ccncc5)c4)c3)nc12`, for which the IC50 turned out to be 140 nM.
`CCc1ccc(S(=O)(=O)Nc2ccc(CCN3CCC(N4CCCCC4)CC3)cc2)cc1`: the concentration for half-maximal inhibition (IC50) was 990 nM.
Turning to `Oc1ccccc1CN(CCCN(Cc1ccccn1)Cc1ccccc1O)Cc1ccccn1`, the IC50 worked out at 1060 nM.
As for `COc1cc(Cc2cnc(N)nc2N)cc(OC)c1OC`, the IC50 came to 750 nM.
`CC(=O)N(C)c1cccc(C(=O)Nc2cccc(-c3ccc(-c4nc5ccc(C(F)(F)F)cc5[nH]4)cc3)c2)c1` had an IC50 of 1000 nM.
Take `Cc1nnsc1C(=O)Nc1ccc(-c2cccc(-c3nc4ccc(C(F)(F)F)cc4[nH]3)c2)cc1`: the IC50 came to 840 nM.
As for `O=C(Nc1ccc(-c2ccc(-c3nc4ccccc4[nH]3)cc2)cc1)Nc1ccc(Cl)c(Cl)c1`, the IC50 worked out at 100 nM.
The value for `Cc1cc(CNCCCCCCCNCc2ccc(Cl)cc2)ccc1O` was 980 nM; that for `O=C(Nc1cccc(CN2CCCN(Cc3ccccc3)CC2)c1)c1cc2ccccc2s1` was 1200 nM; that for `COc1cc(C=NNc2nc(Nc3ccccc3)nc(Nc3ccccc3)n2)ccc1OCc1ccccc1[N+](=O)[O-]` was 810 nM.
For the compound `CCN(CC)C(=NC(N)=NCCCCCCN=C(N)N=C(Nc1ccc(Cl)cc1)N(CC)CC)Nc1ccc(Cl)cc1`, the IC50 was 930 nM.
In the case of `COc1cccc(C2(c3cccc(OC)c3)N=C(N)N(CCCc3ccccc3)C2=O)c1`, the IC50 is 260 nM.
`CC(C)(C)NC(=O)C(c1ccc(F)cc1)N(C(=O)c1ccc(CN2CCOCC2)o1)c1ccc(C2CCCCC2)cc1` (stereo unspecified) registered an IC50 of 920 nM.
On to `Cc1cccn2c(=O)c3cc(C(=O)NC(C)c4ccccc4)c(=N)n(CCN4CCOCC4)c3nc12` (stereo unspecified), for which the IC50 was 820 nM.
`O=C(/C=C/c1ccc(Cl)c(Cl)c1)NCCCCCN1CCC(NC(=O)Nc2ccc(F)cc2F)CC1` registered an IC50 of 740 nM.
Consider `COCCCn1c(=N)c(C(=O)NCCc2ccc(OC)cc2)cc2c(=O)n3cccc(C)c3nc21`, for which the IC50 turned out to be 1030 nM.
For the compound `CN(C(=O)OCc1ccccc1)C1CCC(CCN2CCC3(CC2)C(=O)NCN3c2cccc(C(F)(F)F)c2)(c2ccccc2)CC1` (stereo unspecified), the IC50 amounted to 1180 nM.
The compound `COc1ccc(Cl)cc1N1CCN(CCCNC(=O)c2ccc(-c3nc4cc(Cl)c(F)cc4[nH]3)cc2)CC1` came in with an IC50 of 1060 nM.
Under `O=C(NC1CCN(Cc2ccccc2)CC1)c1csc2nc(-c3ccc(Cl)cc3)cn12` stands 910 nM.
In the case of `C=C[C@]1(C)C[C@@H](OC(=O)CS[C@H]2CN3CC[C@H]2C3)[C@@]2(C)C3C(=O)CC[C@@]3(CC[C@H]2C)[C@@H](C)[C@@H]1O` (stereo partly specified), the IC50 was determined as 690 nM.
Under `c1cncc(CN2CCN(Cc3ccc(-c4ccc(-c5nc6ccccc6[nH]5)s4)cc3)CC2)c1` stands 940 nM.
Compound `CN(C)CCNCc1ccc(-c2cccc(-c3nc4ccccc4[nH]3)c2)cc1` displayed an IC50 of 720 nM.
Compound `O=C(NCCCCN1CCC(c2ccc3c(c2OCC2CC2)CCCC3)CC1)c1ccc(NC(=O)c2ccc(Cl)cc2)cc1` had an IC50 of 680 nM.
`O=C(N[C@@H](Cc1ccccc1)C(=O)NCCN1CCCCC1)c1ccc(O)c(-c2ccc(Cl)c(Cl)c2)c1` yielded a concentration for half-maximal inhibition (IC50) of 1520 nM.
Regarding `COc1ccc2ncc(Cl)c([C@@H](O)CN3CCC(NCc4cc5c(cn4)OCCO5)CC3)c2c1`, the IC50 is 60 nM.
The value for `COc1ccc(C=NNc2nc3ccccc3[nH]2)cc1O` was 920 nM; that for `COc1ccc(CNC2CCCC2)cc1-c1ccc(S(=O)(=O)NCCN2CCCC2)s1` was 800 nM; that for `O=C(Nc1cccc(-c2ccc(CN3CCCC3)cc2)c1)c1ccc(F)cc1` was 1080 nM.
`CCNc1cc(C(=O)N[C@@H](Cc2ccccc2)[C@H](O)CNC(CC)c2cccc(Cl)c2)cc(N2CCCCS2(=O)=O)c1` (stereo partly specified) displayed an IC50 of 50 nM.
The compound `CCOC(=O)C(C#N)NC(=O)C=Cc1ccccc1` (stereo unspecified) showed a half-inhibitory concentration (IC50) of 800 nM.
With `Fc1ccc2c(NN=Cc3ccccc3F)ccnc2c1`, the 50% inhibitory concentration (IC50) stood at 560 nM.
Consider `O=C1Nc2cccc3c2C1(CCCCN1CC=C(c2c[nH]c4ncccc24)CC1)CCC3` (stereo unspecified), for which the IC50 came out at 400 nM.
As for `CCN(CCCN1CCCCC1)c1cc(C)nc(Nc2ccc(C)c(F)c2)n1`, the IC50 was found to be 270 nM.
Under `CN1CCCC(CN2CCN(Cc3ccc(-c4cccc(-c5nc6ccccc6[nH]5)c4)cc3)CC2)C1` (stereo unspecified) stands 130 nM; under `COC(=O)c1ccc(CC(C)NCC(O)c2cccc3ccccc23)cc1` (stereo unspecified), 940 nM; under `CC[C@H]1CN2CC[C@H]1C[C@@H]2[C@@H](O)c1cc(Cl)nc2ccc(OC)cc12`, 60 nM.
As for `COc1ccccc1N1CCN(c2cccc(F)c2C#N)CC1`, the IC50 was determined as 960 nM.
For the compound `OCCN1CCN(Cc2cccc(-c3ccc(-c4nc5ccc(C(F)(F)F)cc5[nH]4)s3)c2)CC1`, the IC50 was 90 nM.
`C=C[C@H]1CN(CCCCCCC)CC[C@H]1CCNc1ccnc2ccc(OC)cc12`: the IC50 turned out to be 60 nM.
`O=S(=O)(c1ccc(Cl)cc1Cl)N1CCCCC(c2ccc(C(F)(F)F)cc2)=N1`: the IC50 was 160 nM.
`CN(CCCN(C)c1cc(NC(=O)c2ccc(F)cc2)ccn1)Cc1cccc(F)c1` came in with an IC50 of 1220 nM.
With `COc1ccc(CCNCCCCCCNCCc2cccc([N+](=O)[O-])c2)cc1OC`, the IC50 is 1000 nM.
Turning to `Cc1ccc(NC(=O)Nc2ccc(Cl)c(C(F)(F)F)c2)cc1-c1ccc(C(=O)NCCN2CCOCC2)cc1`, the IC50 came out at 810 nM.
Compound `COc1cccc(NC(=O)Cn2c(C)c(C#N)c3ccccc32)c1` showed an IC50 of 880 nM.
As to `COc1ccccc1NC(=O)CSc1nc2cccnc2n1-c1ccccc1OC`, the IC50 came to 360 nM.
In turn, `COc1ccc2ncc(F)c(NC(=O)C3CCC(NCc4cc5c(F)cccc5[nH]4)CC3)c2n1` (stereo unspecified) registered an IC50 of 1090 nM.
For the compound `N#Cc1cncc(-c2nc3c(N4CCCC(N)C4)cccc3n2CCNCc2ccccc2)c1` (stereo unspecified), the IC50 stood at 770 nM.

These data come from PubChem BioAssay AID2305 (GlaxoSmithKline (GSK), 2010).
